Source: patent US20220081481A1, “USE OF AGENTS CAPABLE OF INDUCING LC3-ASSOCIATED PHAGOCYTOSIS FOR TREATING SUSTAINED INFLAMMATION IN PATIENTS SUFFERING FROM CHRONIC LIVER DISEASE” (INSERM (INSTITUT NATIONAL DE LA SANTÉ ET DE LA RECHERCHE …, priority 2019, published 2022)
Ends that are not written are not given here.

System: CD14+ cells from patients and healthy donors PBMC
Assay: Flow cytometry of IL8+ production in CD14+ cells of PBMC
Assay type: cell-based, human
Details: for number of CD14+IL8+ monocytes: cirrhotic monocytes vs control-treated cells from healthy donors, 10 mM 3-MA, 10 μM DPI, 30 μM N8, 4 hrs, FIG. 1B; for inflammatory signature in blood monocytes: healthy donors and patients, prominent increase in cells from patients, 4 hrs at 37° C., FIG. 1B and 1C
Method: FIG. 1: Inhibition of LAP components enhances the inflammatory signature in blood monocytes from patients with cirrhosis. (A). Inverse correlation between circulating C-Reactive Protein (CRP) levels and the number of LC3+ pHrodo+ phagosomes containing E. Coli bioparticles in blood monocytes from patients with cirrhosis (n=14). *p=0.005, r=-0.7 for LC3+ pHrodo+ phagosomes number vs CRP. (B). PBMC were incubated for 4 hrs at 37° C. with either vehicle, 10 mM 3-MA, 10 μM DPI, 30 μM N8 or control mutant […] peptides Percentage of IL8+ production in CD14+ cells from patients (n=8) and healthy donors (n=6) PBMC. (C). RT-PCR analysis of inflammatory gene expression in blood monocytes from healthy donors (n=6-8) and cirrhotic patients (n=6-11). Results are expressed as fold over respective control. *p<0.05, **p<0.001 for healthy vs cirrhotic. Statistical analysis was performed using Spearman correlation test (A), Mann-Whitney (b, for comparison between healthy and cirrhosis) and Wilcoxon matched-pairs signed rank test (B, for treatment). Peripheral blood mononuclear cells (PBMC) and monocyte isolation. PBMC were prepared from the blood of cirrhotic patients and healthy donors, using Ficoll density gradient centrifugation (Ficoll PaqueTM-plus, GE Healthcare, 17-1440-02), as previously described^43. Cell treatment. Human monocytes, THP1-XBlueTM-CD14 (Invivogen, Catalog #[…] THP1-FcγRIIA+-CD14+(kindly provided by Novimmune) monocytes were used. When indicated cells were exposed to either 30 μM chloroquine diphosphate (Sigma, C6628), 10 mM 3-Methyladenine (3-MA, Sigma, M9281-100 mg), 10 mM Diphenyleneiodonium chloride (DPI, Sigma, D2926-10 mg), or 10 mg/ml IVIg (Privigen, 100 mg/ml) for 4 hrs at 37° C., as indicated. […] In some experiments, cells were exposed to the preformed complex (10 μg/ml of mouse anti-hFcγRII mAb (clone AT-10, Santa Cruz, sc-13527) F(ab')2 fragments+20 μg/ml goat anti-mouse anti-kappa F(ab')2 fragments (Southern Biotech, 1052-01) or to 100 μg/ml of anti-hFcγRIIA mAb F(ab')2 fragments (clone IV.3), purified as we previously described^26. Flow cytometry. For surface and intracellular staining, PBMC (1×10^6) were centrifuged at 4° C. at 500 g for 5 min and stained in the dark for 30 min at 4° C. in flow cytometry staining buffer (5% FCS-PBS) containing fluorochrome-conjugated antibodies (APC-CD14, clone HCD14, Biolegend, 325608), CD11b-PE-vio 770 (clone REA592, Miltenyi Biotec, 130-109-287), CD16 Brilliant violet 605 (clone3G8, 302040, Biolegend) and FITC-FcγRIIA (clone […] Technologies, 60012FI). […] Data acquisition was performed using a BD Biosciences LSR Fortessa cytometer and data were analysed using FlowJo analysis software (Tree Star).

Row | Compound | number of CD14+IL8+ monocytes | inflammatory signature in blood monocytes
1 | Cn1cnc(N)c2ncnc1-2 [3-MA, 3-Methyladenine] | significantly higher | enhanced
2 | N8 peptide: Tat-conjugated peptide of eight N-terminal amino acids (3-10) of p22phox that blocks the Rubicon-p22phox interaction (QIEWAMWA; also: Tat cell-penetrating peptide conjugate, attachment not given here; UniProt P13498 3-10, looked up, fragment) | significantly higher | enhanced
